The results in this text go back to US20080248511A1, “METHODS TO QUENCH LIGHT FROM OPTICAL REACTIONS” (priority 2007, published 2008).

Test [1] addresses T1, firefly luciferase (Photinus pyralis, UniProt P08659). The test is described as follows: Detergent screen with Tergitol NP-9, firefly luciferase (Example 3). The test is classed as biochemical. The settings on record: 0.06% quencher in reagent solution; 0.5% Tergitol NP-9. Here is the method: (§1) Unless otherwise specified, materials were obtained from Sigma-Aldrich.
(§2) The firefly luciferase and Renilla luciferase enzymes were diluted as follows. Firefly luciferase was diluted to 14 ng/ml in Delbecco's Minimal Essential (DMEM) medium (Gibco/Invitrogen) containing 0.1% Prionex®. Renilla luciferase was diluted to 10 ng/ml in DMEM medium containing 0.1% Prionex®.
(§3) The luciferase reactions were initiated by adding 50 μl of the firefly luciferase or Renilla luciferase enzyme solution to 50 μl of reagent solution. The reactions were performed as described above. The retained firefly luciferase and Renilla luciferase luminescence as well as the selectivity values for each quencher were calculated (Table 3). The values listed are based on 0.06% quencher in the reagent solution.

Test [2] concerns the target T2, Renilla luciferase (Renilla reniformis, UniProt P27652).
T2 sequence (P27652 1-311): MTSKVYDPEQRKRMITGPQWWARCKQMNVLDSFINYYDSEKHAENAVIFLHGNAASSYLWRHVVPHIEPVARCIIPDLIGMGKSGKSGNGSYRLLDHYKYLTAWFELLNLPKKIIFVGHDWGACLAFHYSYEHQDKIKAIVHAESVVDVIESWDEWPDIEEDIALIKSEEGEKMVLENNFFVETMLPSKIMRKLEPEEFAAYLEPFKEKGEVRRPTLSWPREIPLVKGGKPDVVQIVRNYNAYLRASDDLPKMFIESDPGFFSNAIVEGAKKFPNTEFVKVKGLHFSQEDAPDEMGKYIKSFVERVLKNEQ
The test is described as follows: Detergent screen with Tergitol NP-9, Renilla luciferase (Example 3). To be noted: 0.5% Tergitol NP-9; for Retained Renilla Luminescence (%): 0.06% quencher in reagent solution; for Selectivity Value: retained firefly / retained Renilla, 0.06% quencher. It counts as biochemical. How it is done: as §1, §2, §3

The target in test [3] is T2, Renilla luciferase. The test is described as follows: Quench of Renilla luciferase luminescence in lysed CHO cells expressing Renilla luciferase (Example 7). To be noted: for Inhibition (Initial/Addition): 10 μM #3077 and/or 0.04% #1424, 0.5% Tergitol NP-9; for Renilla luciferase luminescence after inhibitor addition: 3 minutes after lysis solution with 0.5% Tergitol NP-9 and 10 μM #3077 and/or 0.04% #1424; for Initial Renilla luciferase luminescence: CHO cells, EnduRen, before inhibitor addition. The test is classed as cell-based. How it is done:
Renilla luciferase was expressed under the control of the CMV promoter in Chinese Hamster Ovary (CHO) cells. The cells were grown in DMEM+10% FBS (Invitrogen). The cells (20,000) were plated in 96-well plates and cultured in the presence of the EnduRen™ Live Cell Substrate (Promega) in order to generate continuous Renilla luciferase-mediated luminescence. After 12 hours of culturing, Renilla luciferase-mediated luminescence was measured. After measurement, the cells were lysed with an equal volume of a solution containing 0.5% Tergitol NP-9 and either 10 μM compound #3077 (non-detergent inhibitor), 0.04% 4-((dodecyldimethylammonium)methyl)benzoate (#1424) (detergent inhibitor), or a combination of the two. The cells were exposed for 3 minutes and Renilla luciferase-mediated luminescence was measured.

Test [4] has as its target T1, firefly luciferase. The test is described as follows: Versions of firefly luciferase reagent, firefly luciferase only samples (Example 10). The test is classed as biochemical. How it is done: (§4) Eight different versions of firefly luciferase reagent were made. The versions contained one of two luciferin substrates: luciferin or 5′ fluoroluciferin. The versions also differed in whether they contained Coenzyme A and/or DTT (a thiol). All versions of the reagent contained 250 mM HEPES pH 7.4, 16 mM MgSO4, 2 mM ATP and 2 mM luciferin or 5′fluoroluciferin. To create the various versions of the firefly luciferase reagent, 20 mM DTT, 2 mM Coenzyme A, 20 mM DTT and 2 mM Coenzyme A or neither DTT or Coenzyme A was added. In addition, sub-versions of the reagent were created which contained 0.3 mM of the indole (#3077) Renilla luciferase quencher, 0.04% (w:v) of the detergent (4-((dodecyldimethylammonium)methyl)benzoate) Renilla luciferase quencher, both quenchers or neither quencher. In all, a total of 32 versions of firefly luciferase reagent were created (Table 10).
(§5) To mimic the effect of measuring Renilla luciferase luminescence followed by the measurement of firefly luciferase luminescence in a single sample, side-by-side samples (each in triplicate) were used for each version of reagent. The first triplicate of samples comprised one of the versions of firefly luciferase reagent and a firefly luciferase solution (added 1:1) containing F12 medium (Invitrogen), 1 mg/ml BSA (ThermoFisher) and 14 ng/ml QuantiLum® luciferase (Promega). The second triplicate of samples comprised the same version of firefly luciferase reagent used in the first trio and a firefly/Renilla luciferase solution (added 1:1) containing F12 medium, 1 mg/ml BSA, 14 ng/ml QuantiLum® luciferase and 140 ng/ml Renilla luciferase. Firefly and Renilla luciferase luminescence was measured as previously described in both sets of samples at the same time. […] The firefly luciferase measurements were obtained from the samples only containing the firefly luciferase while the Renilla luciferase measurements were obtained from the samples containing both firefly and Renilla luciferases.

Test [5] deals with T2, Renilla luciferase. Briefly: Versions of firefly luciferase reagent, firefly/Renilla luciferase samples (Example 10). The test is classed as biochemical. To be noted: firefly/Renilla sample. Here is the method: as §4, §5
Test [6] has as its target T1, firefly luciferase. The test is described as follows: Non-detergent compound screen, firefly luciferase (Example 6). It counts as biochemical. The settings on record: 0.5% Tergitol NP-9, 0.03% BDDABr, read-out: Retained Firefly Luciferase Value (%).
In test [7] the target is T2, Renilla luciferase. Briefly: Non-detergent compound screen, Renilla luciferase (Example 6). It counts as biochemical.
Test [8] addresses T2, Renilla luciferase. Briefly: Quench of Renilla luciferase luminescence by competitive inhibitors in detergent-containing quenching reagent (Example 1). It counts as biochemical. Here is the method:
Renilla luciferase (1×10^−9 M in Renilla Luciferase Lysis Buffer (Promega))+0.1% Prionex (PentaPharma) was added to Renilla Luciferase Assay Buffer (Promega) containing 3 μM coelenterazine-h. The initial Renilla luciferase-mediated luminescence was measured for 10 seconds using a Turner 20/20 n (Turner BioSystems). A quenching reagent containing 50 mM HEPES pH 7.4, 16 mM MgSO4, 1 mM CDTA, 0.5% Tergitol NP-9, 0.015% dodecyltrimethylammonium bromide, 10 mM thiourea, 0.05% Mazu-DF-204 (PGP), and 1.5 mM ATP (Pharmacia) was added to the reactions to reduce the Renilla luciferase-mediated luciferase luminescence. […] After the addition of the inhibitors, a second Renilla luciferase-mediated luminescence reading was taken. Unless otherwise specified, materials were obtained from Sigma-Aldrich.
The quenching agents described herein are effective in the presence of detergents used for cell lysis as well as other quenching agents.

The mark [9] stands for this setting: Luciferin, no thiol, 0.3 mM #3077 and/or 0.04% #1424.
[10] abbreviates: Quench Reagent + 10 μM inhibitor.
The mark [11] stands for this setting: Quench Reagent + 100 μM inhibitor.

T1 sequence (P08659 whole entry): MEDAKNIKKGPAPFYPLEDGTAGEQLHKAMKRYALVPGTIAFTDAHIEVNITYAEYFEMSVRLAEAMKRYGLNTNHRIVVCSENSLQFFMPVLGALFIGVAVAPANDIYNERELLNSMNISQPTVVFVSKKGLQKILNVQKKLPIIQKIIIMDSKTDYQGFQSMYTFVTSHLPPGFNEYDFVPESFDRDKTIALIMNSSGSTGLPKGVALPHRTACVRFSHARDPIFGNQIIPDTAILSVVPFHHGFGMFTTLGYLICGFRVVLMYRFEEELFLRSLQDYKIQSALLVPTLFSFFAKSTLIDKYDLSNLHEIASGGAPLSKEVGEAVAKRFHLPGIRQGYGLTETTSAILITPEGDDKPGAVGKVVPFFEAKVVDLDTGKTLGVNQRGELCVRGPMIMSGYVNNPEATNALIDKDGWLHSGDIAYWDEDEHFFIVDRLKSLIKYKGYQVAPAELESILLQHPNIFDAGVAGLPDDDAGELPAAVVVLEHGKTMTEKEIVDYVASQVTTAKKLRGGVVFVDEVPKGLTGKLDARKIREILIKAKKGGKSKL

Take `CCCCCCCCCCCC[N+](C)(C)Cc1ccc(C(=O)[O-])cc1` [Compound 1424, 4-((Dodecyldimethylammonium)methyl)benzoate]: the “Retained Firefly Luminescence (%)” value in test [1] is recorded as 127.0%. The “Retained Renilla Luminescence (%)” value in test [2] is listed as 20.0%. Also, the “Selectivity Value” in test [2] came out at 6.4. Further, in test [3], the “Inhibition (Initial/Addition)” value is given as 52. In test [3], the “Renilla luciferase luminescence after inhibitor addition” value is 19963. Also, the “Initial Renilla luciferase luminescence” value in test [3] amounted to 1037560. The Firefly luminescence in test [4] (5′-fluoroluciferin, CoA) is reported as 2,095,790; in test [4] (5′-fluoroluciferin, DTT), 512,625; in test [4] (5′-fluoroluciferin, DTT + CoA), 2,376,253; in test [4] (5′-fluoroluciferin, no thiol), 268,289; in test [4] (Luciferin, CoA) it was 1,621,883; in test [4] (Luciferin, DTT) it was 291,173. For the same compound, the Firefly luminescence is reported as 1,881,453 in test [4] (Luciferin, DTT + CoA) and 144,239 in test [4] (setting [9]). Also, the Renilla luminescence is reported as 2,891,880 in test [5] (5′-fluoroluciferin, CoA); 2,833,435 in test [5] (5′-fluoroluciferin, DTT + CoA); 1,142,573 in test [5] (5′-fluoroluciferin, DTT); 1,138,027 in test [5] (5′-fluoroluciferin, no thiol); 2,240,063 in test [5] (Luciferin, CoA); 2,265,505 in test [5] (Luciferin, DTT + CoA). For the same compound, the Renilla luminescence is listed as 699,059 in test [5] (Luciferin, DTT) and 660,916 in test [5] (Luciferin, no thiol).

For `CCCC[N+](C)(C)CCc1c[nH]c2ccc(/C=C/C(=O)NCc3ccc(OC)cc3)cc12.[I-]` [Compound 3077, (E)-N-(2-(5-(3-(4-methoxybenzylamino)-3-oxoprop-1-enyl)-1H-indol-3-yl)ethyl)-N,N-dimethylbutan-1-aminium iodide], the remaining activity at 10 µM in test [6] (inhibitor 10 μM) came to 100%; in test [7] (inhibitor 10 μM, 0.5% Tergitol NP-9, 0.03% BDDABr, read-out: Retained Renilla Luciferase Value (%)), 5%. Moreover, the remaining activity at 100 µM in test [6] (inhibitor 100 μM) came out at 98%; in test [7] (inhibitor 100 μM, 0.5% Tergitol NP-9, 0.03% BDDABr, read-out: Retained Renilla Luciferase Value (%)), 1%. Moreover, the remaining activity at 1000 µM in test [6] (inhibitor 1000 μM) was 98%; in test [7] (inhibitor 1000 μM, 0.5% Tergitol NP-9, 0.03% BDDABr, read-out: Retained Renilla Luciferase Value (%)), 0.1%. The “Selectivity Value” in test [7] (inhibitor 10 μM) is given as 20; in test [7] (inhibitor 100 μM), 98; in test [7] (inhibitor 1000 μM) it was 980. Moreover, the “Inhibition (Initial/Addition)” value in test [3] is listed as 608. In test [3] (10 μM #3077 vs 0.04% #1424), the “effectiveness at quenching Renilla luciferase-mediated luminescence relative to #1424 alone” value was “about 12 fold”. In addition, in test [3], the “Renilla luciferase luminescence after inhibitor addition” value was 1402. Moreover, the “Initial Renilla luciferase luminescence” value in test [3] is 852596. Besides, the Firefly luminescence is on record as 2,367,927 in test [4] (5′-fluoroluciferin, CoA); 499,900 in test [4] (5′-fluoroluciferin, DTT); 2,677,367 in test [4] (5′-fluoroluciferin, DTT + CoA); 239,138 in test [4] (5′-fluoroluciferin, no thiol); 1,502,143 in test [4] (Luciferin, CoA); 252,225 in test [4] (Luciferin, DTT). Also, the Firefly luminescence in test [4] (Luciferin, DTT + CoA) was 1,821,797; in test [4] (setting [9]), 115,749. In addition, the Renilla luminescence in test [5] (5′-fluoroluciferin, CoA) is recorded as 2,360,350; in test [5] (5′-fluoroluciferin, DTT + CoA) it was 2,653,610; in test [5] (5′-fluoroluciferin, DTT), 514,808; in test [5] (5′-fluoroluciferin, no thiol) it was 280,188; in test [5] (Luciferin, CoA), 1,572,983; in test [5] (Luciferin, DTT + CoA), 1,770,665. The Renilla luminescence is given as 260,392 in test [5] (Luciferin, DTT) and 136,759 in test [5] (Luciferin, no thiol).

Regarding `CCCCCCCCCCCC[N+](C)(C)Cc1ccccc1-c1ccccc1.[Br-]` [N-(biphenyl-2-ylmethyl)-NN-dimethyldodecyan-1-ammonium bromide], the “Retained Firefly Luminescence (%)” value in test [1] was determined as 177.0%. For the same compound, in test [2], the “Retained Renilla Luminescence (%)” value turned out to be 0.8% and the “Selectivity Value” is 221.3.

On to `C[N+](C)(Cc1ccccc1)C1CCCCC1.[Br-]` [N-benzyl-N,N-dimethylcyclohexanaminium bromide], for which, in test [1], the “Retained Firefly Luminescence (%)” value is 90%. In test [2], the “Retained Renilla Luminescence (%)” value turned out to be 76% and the “Selectivity Value” is 1.2.

`CCCCCC[N+](C)(C)Cc1ccccc1.[Br-]` [N-benzyl-N,N-dimethylhexan-1-aminium bromide]: in test [1], the “Retained Firefly Luminescence (%)” value was 103%. In addition, in test [2], the “Retained Renilla Luminescence (%)” value was 54% and the “Selectivity Value” is 1.9.

As for `CCCCCCCCCCCC[N+](C)(C)C1c2ccccc2-c2ccccc21.[Br-]` [N-dodecyl-N,N-dimethyl-9H-fluoren-9-aminium bromide], in test [1], the “Retained Firefly Luminescence (%)” value is 37%. Further, in test [2], the “Retained Renilla Luminescence (%)” value is 1% and the “Selectivity Value” came to 37.

With `O=C(Cc1ccc(O)cc1)Nc1ncc(-c2ccc(O)cc2)nc1Cc1ccccc1` [coelenteramide], the “Reduction in Renilla luciferase luminescence after 2nd measurement” value in test [8] (setting [10]) was 18-fold; in test [8] (setting [11]), 21-fold. In test [8] (in the presence of lysing detergent and quenching reagent), the Ki is greater than 100 µM.

For the compound “N-benzyl-N,N-dimethylloctan-1-aminium bromide”, the “Retained Firefly Luminescence (%)” value in test [1] is given as 134%. Further, in test [2], the “Retained Renilla Luminescence (%)” value is 13% and the “Selectivity Value” came out at 10.3.

As for methylether coelenterazine-h, the “Reduction in Renilla luciferase luminescence after 2nd measurement” value in test [8] (setting [10]) was 15-fold; in test [8] (setting [11]), 30-fold.

The Ki is the dissociation constant of the complex between target and ligand, obtained from inhibition or displacement.
